According to ChEMBL document CHEMBL4725365, “Modified tetra-oxygenated xanthones analogues as anti-MRSA and P. aeruginosa agent and their synergism with vancomycin” (2020):
Values after ≈ are worked out from the molar mass of the structure shown. Active and inactive are the calls of the source. The calls are words filed in the database; no cut-off is given here.

Experiments:
[1] = system: Bacillus subtilis; test: Antibacterial activity against Bacillus subtilis; type: functional
[2] = system: Enterococcus faecalis; test: Antibacterial activity against Enterococcus faecalis TISTR 459; type: functional
[3] = system: Shigella sonnei; test: Antibacterial activity against Shigella sonnei; type: functional
[4] = system: Staphylococcus aureus; test: Antibacterial activity against methicillin-resistant Staphylococcus aureus ATCC 43300; type: functional
[5] = system: Salmonella typhi; test: Antibacterial activity against Salmonella typhi; type: functional, Salmonella enterica subsp. enterica serovar Typhi; conditions: Salmonella enterica
[6] = system: Pseudomonas aeruginosa; test: Antibacterial activity against Pseudomonas aeruginosa; type: functional
[7] = system: Staphylococcus aureus; test: Synergistic antibacterial activity against methicillin-resistant Staphylococcus aureus ATCC 43300 in presence of vancomycin; type: functional
[8] = system: Staphylococcus aureus; test: Induction of morphological changes in methicillin-resistant Staphylococcus aureus ATCC 43300 assessed as cell deformation at MIC incubated for 24 hrs in presence of vancomycin by scanning electron microscopic method; type: functional, organism-based
[9] = system: Enterococcus faecalis; test: Antibacterial activity against vancomycin-resistant Enterococcus faecalis ATCC 51299; type: functional
[10] = system: Pseudomonas aeruginosa; test: Synergistic antibacterial activity against Pseudomonas aeruginosa assessed as fractional inhibitory concentration index in presence of vancomycin; type: functional
[11] = system: Pseudomonas aeruginosa; test: Induction of morphological changes in Pseudomonas aeruginosa assessed as cell deformation incubated for 24 hrs by scanning electron microscopic method; type: functional, organism-based
[12] = system: Staphylococcus aureus; test: Induction of morphological changes in methicillin-resistant Staphylococcus aureus ATCC 43300 assessed as cell deformation incubated for 24 hrs by scanning electron microscopic method; type: functional, organism-based
[13] = system: Pseudomonas aeruginosa; test: Induction of morphological changes in Pseudomonas aeruginosa assessed as cell deformation incubated for 24 hrs in presence of vancomycin by scanning electron microscopic method; type: functional, organism-based
[14] = system: Pseudomonas aeruginosa; test: Synergistic antibacterial activity against Pseudomonas aeruginosa in presence of vancomycin; type: functional
[15] = system: Staphylococcus aureus; test: Synergistic antibacterial activity against methicillin-resistant Staphylococcus aureus ATCC 43300 assessed as fractional inhibitory concentration index in presence of vancomycin; type: functional

SMILES	MIC [1]	MIC [2]	MIC [3]	MIC [4]	MIC [5]	MIC [6]	MIC [7]	Activity [8]	MIC [9]	fractional inhibitory concentration index (FICI) [10]	Activity [11]	Activity [12]	Activity [13]	MIC [14]	fractional inhibitory concentration index (FICI) [15]
CC(C)=CCc1c(O)cc2oc3cc(O)c(O)c(CC=C(C)C)c3c(=O)c2c1O	18.8 mg/L (≈ 47.3 µM)	9.37 mg/L (≈ 23.6 µM)	18.8 mg/L (≈ 47.3 µM)	4.68 mg/L (≈ 11.8 µM)	18.8 mg/L (≈ 47.3 µM)	18.8 mg/L (≈ 47.3 µM)									
COc1c(O)cc2oc3cc4c(c(O)c3c(=O)c2c1CCC(C)(C)O)CCC(C)(C)O4	18.8 mg/L (≈ 43.8 µM)	> 300 mg/L	300 mg/L (≈ 700 µM)	18.8 mg/L (≈ 43.8 µM)	150 mg/L (≈ 350 µM)	75 mg/L (≈ 175 µM)	4.98 mg/L	Active	> 300 mg/L	0.187	Active	Active	Active	9.52 mg/L	0.375
COc1cc2oc3cc(O)c(OC)c(CC=C(C)C)c3c(=O)c2c(O)c1CC=C(C)C	2.34 mg/L (≈ 5.51 µM)	300 mg/L (≈ 707 µM)	> 300 mg/L	4.68 mg/L (≈ 11 µM)	> 300 mg/L	9.37 mg/L (≈ 22.1 µM)			300 mg/L (≈ 707 µM)						
COc1c(O)cc2oc3cc(O)c(CC=C(C)C)c(O)c3c(=O)c2c1CC=C(C)C [MANGOSTIN]	2.34 mg/L (≈ 5.7 µM)	150 mg/L (≈ 365 µM)	150 mg/L (≈ 365 µM)	0.585 mg/L (≈ 1.43 µM)	18.8 mg/L (≈ 45.7 µM)	0.292 mg/L (≈ 0.713 µM)	0.877 mg/L		150 mg/L (≈ 365 µM)	0.187	Active	Active		0.439 mg/L	0.375
O=c1c2cc(O)c(O)cc2oc2cc(O)cc(O)c12	37.5 mg/L (≈ 144 µM)	300 mg/L (≈ 1150 µM)	> 300 mg/L	18.8 mg/L (≈ 72.1 µM)	> 300 mg/L	37.5 mg/L (≈ 144 µM)			> 300 mg/L						
COc1cc2oc3cc(O)c(CC=C(C)C)c(O)c3c(=O)c2c(CC=C(C)C)c1OC	75 mg/L (≈ 177 µM)	75 mg/L (≈ 177 µM)	150 mg/L (≈ 353 µM)	18.8 mg/L (≈ 44.2 µM)	150 mg/L (≈ 353 µM)	18.8 mg/L (≈ 44.2 µM)									
COc1cc2oc3cc(O)c(OC)c(CCC(C)(C)OC(C)=O)c3c(=O)c2c2c1CCC(C)(C)O2	300 mg/L (≈ 619 µM)	> 300 mg/L	300 mg/L (≈ 619 µM)	> 300 mg/L	300 mg/L (≈ 619 µM)	300 mg/L (≈ 619 µM)			> 300 mg/L						
COc1cc2oc3cc(O)c(OC)c(CCC(C)C)c3c(=O)c2c(O)c1CCC(C)C	150 mg/L (≈ 350 µM)	75 mg/L (≈ 175 µM)	150 mg/L (≈ 350 µM)	37.5 mg/L (≈ 87.5 µM)	150 mg/L (≈ 350 µM)	150 mg/L (≈ 350 µM)									
COc1c(OS(=O)(=O)c2ccc(Br)cc2)cc2oc3cc(OS(=O)(=O)c4ccc(Br)cc4)c(CC=C(C)C)c(O)c3c(=O)c2c1CC=C(C)C	> 300 mg/L	> 300 mg/L	> 300 mg/L	> 300 mg/L	> 300 mg/L	300 mg/L (≈ 354 µM)									
COc1cc2oc3cc(O)c(OC)c(CCC(C)(C)O)c3c(=O)c2c(O)c1CC=C(C)C	9.37 mg/L (≈ 21.2 µM)	150 mg/L (≈ 339 µM)	300 mg/L (≈ 678 µM)	18.8 mg/L (≈ 42.4 µM)	300 mg/L (≈ 678 µM)	18.8 mg/L (≈ 42.4 µM)			> 300 mg/L						
COc1cc2oc3cc(OC)c(OC)c(CC=C(C)C)c3c(=O)c2c(O)c1CC=C(C)C	75 mg/L (≈ 171 µM)	150 mg/L (≈ 342 µM)	> 300 mg/L	> 300 mg/L	300 mg/L (≈ 684 µM)	300 mg/L (≈ 684 µM)			300 mg/L (≈ 684 µM)						
COc1c(O)cc2oc3cc(O)c4c(c3c(=O)c2c1CCC(C)(C)O)OC(C)(C)CC4	37.5 mg/L (≈ 87.5 µM)	> 300 mg/L	300 mg/L (≈ 700 µM)	37.5 mg/L (≈ 87.5 µM)	300 mg/L (≈ 700 µM)	300 mg/L (≈ 700 µM)			> 300 mg/L						
COc1c(O)cc2oc3cc4c(c(O)c3c(=O)c2c1CC=C(C)C)CCC(C)(C)O4	2.34 mg/L (≈ 5.7 µM)	> 300 mg/L	300 mg/L (≈ 731 µM)	1.17 mg/L (≈ 2.85 µM)	300 mg/L (≈ 731 µM)	2.34 mg/L (≈ 5.71 µM)	1.75 mg/L		> 300 mg/L	0.375	Active	Active		2.63 mg/L	0.75
COc1c(OCC=C(C)C)cc2oc3cc(OCC=C(C)C)c(CC=C(C)C)c(O)c3c(=O)c2c1CC=C(C)C	> 300 mg/L	300 mg/L (≈ 549 µM)	> 300 mg/L	> 300 mg/L	> 300 mg/L	300 mg/L (≈ 549 µM)									
CN[C@H](CC(C)C)C(=O)N[C@H]1C(=O)N[C@@H](CC(N)=O)C(=O)N[C@H]2C(=O)N[C@H]3C(=O)N[C@H](C(=O)N[C@H](C(=O)O)c4cc(O)cc(O)c4-c4cc3ccc4O)[C@H](O)c3ccc(c(Cl)c3)Oc3cc2cc(c3O[C@@H]2O[C@H](CO)[C@@H](O)[C@H](O)[C@H]2O[C@H]2C[C@](C)(N)[C@H](O)[C@H](C)O2)Oc2ccc(cc2Cl)[C@H]1O [VANCOMYCIN]	2.34 mg/L (≈ 1.61 µM)	2.34 mg/L (≈ 1.61 µM)	2.34 mg/L (≈ 1.61 µM)	2.34 mg/L (≈ 1.61 µM)	2.34 mg/L (≈ 1.61 µM)	2.34 mg/L (≈ 1.61 µM)			2.34 mg/L (≈ 1.61 µM)						
COc1cc2oc3cc(O)c(O)c(CC=C(C)C)c3c(=O)c2c(O)c1CC=C(C)C	18.8 mg/L (≈ 45.7 µM)	300 mg/L (≈ 731 µM)	150 mg/L (≈ 365 µM)	9.37 mg/L (≈ 22.8 µM)	150 mg/L (≈ 365 µM)	18.8 mg/L (≈ 45.7 µM)			300 mg/L (≈ 731 µM)						
COc1cc2oc3cc(O)c(OC)c(CC=C(C)C)c3c(=O)c2c2c1CCC(C)(C)O2	75 mg/L (≈ 177 µM)	75 mg/L (≈ 177 µM)	300 mg/L (≈ 707 µM)	> 300 mg/L	300 mg/L (≈ 707 µM)	300 mg/L (≈ 707 µM)			150 mg/L (≈ 353 µM)						
COc1cc2oc3cc(O)c(CC=C(C)C)c(O)c3c(=O)c2c(CC=C(C)C)c1O	75 mg/L (≈ 183 µM)	75 mg/L (≈ 183 µM)	75 mg/L (≈ 183 µM)	9.37 mg/L (≈ 22.8 µM)	37.5 mg/L (≈ 91.4 µM)	4.67 mg/L (≈ 11.4 µM)									
COc1c(O)cc2oc3cc4c(c(O)c3c(=O)c2c1CCC(C)(C)OC)CCC(C)(C)O4	9.37 mg/L (≈ 21.2 µM)	> 300 mg/L	300 mg/L (≈ 678 µM)	9.37 mg/L (≈ 21.2 µM)	300 mg/L (≈ 678 µM)	75 mg/L (≈ 169 µM)			> 300 mg/L						
COc1cc2oc3cc(O)c(OC)c(CCC(C)(C)O)c3c(=O)c2c2c1CCC(C)(C)O2	150 mg/L (≈ 339 µM)	> 300 mg/L	300 mg/L (≈ 678 µM)	150 mg/L (≈ 339 µM)	300 mg/L (≈ 678 µM)	300 mg/L (≈ 678 µM)			> 300 mg/L						
